Positions of bridges follow the written chain, without caps; N, C: chain ends. Non-standard residues stand in square brackets, D forms with d. Residues, ends and D or L forms follow the SMILES beside them. *: point of attachment. βGlcA(1-O-hexadecyl) = CCCCCCCCCCCCCCCCO[C@@H]1O[C@H](C(=O)*)[C@@H](O)[C@H](O)[C@H]1O; GlcA(β-D,1-O-dodecyl) = CCCCCCCCCCCCO[C@@H]1O[C@H](C(=O)*)[C@@H](O)[C@H](O)[C@H]1O; βGlcA(1-OMe) = CO[C@@H]1O[C@H](C(=O)*)[C@@H](O)[C@H](O)[C@H]1O; Phe(2,4,6-Me3) = Cc1cc(C)c(C[C@H](N)C(=O)O)c(C)c1; Dmt = Cc1cc(O)cc(C)c1C[C@H](N)C(=O)O; hArg = N=C(N)NCCCC[C@H](N)C(=O)O; Nle = CCCC[C@H](N)C(=O)O; Ac5c = NC1(C(=O)O)CCCC1; Aib = CC(C)(N)C(=O)O

The results in this text go back to patent US10005817B2, “Peptide pharmaceuticals” (EUMEDERIS PHARMACEUTICALS, INC., priority 2012, dated 2018).

One test has as its target T1, PTH receptor (PTHR1) (Homo sapiens, UniProt Q03431).
T1 construct: Cerep SA
T1 sequence (Q03431 27-593): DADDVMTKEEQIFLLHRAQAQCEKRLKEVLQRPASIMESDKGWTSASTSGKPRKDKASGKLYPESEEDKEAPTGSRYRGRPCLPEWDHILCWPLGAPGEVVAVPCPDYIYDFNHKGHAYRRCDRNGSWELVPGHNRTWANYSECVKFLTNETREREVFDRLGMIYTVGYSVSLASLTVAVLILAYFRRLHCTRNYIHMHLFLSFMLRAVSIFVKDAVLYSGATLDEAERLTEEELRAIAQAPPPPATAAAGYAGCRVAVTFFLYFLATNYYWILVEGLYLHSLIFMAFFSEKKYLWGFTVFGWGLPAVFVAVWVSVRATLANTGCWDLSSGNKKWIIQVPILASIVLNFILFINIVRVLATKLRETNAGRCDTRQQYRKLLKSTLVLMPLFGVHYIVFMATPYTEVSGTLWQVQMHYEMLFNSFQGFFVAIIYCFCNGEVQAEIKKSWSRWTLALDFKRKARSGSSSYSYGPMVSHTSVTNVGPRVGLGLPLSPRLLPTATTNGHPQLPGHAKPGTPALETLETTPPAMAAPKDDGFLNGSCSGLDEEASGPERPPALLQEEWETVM
Put plainly: PTH1 cellular assay, cAMP, agonist mode (SaOS2 cells, Cerep). Type of test: cell-based. The settings on record: for Emax: SAOS-2, read-out: Maximal response (% PTHrP). The protocol: Compounds were weighed precisely in an amount of approximately 1 mg and assayed in standard cellular assays (cerep SA). The readout is the amount of cAMP generated in the cells treated with the test compounds, in either agonist or antagonist mode.
Compounds were dissolved in water and diluted in assay buffer containing 1% bovine serum albumin.

Another test deals with T2, mu opioid receptor (Homo sapiens, UniProt P35372).
T2 construct: Cerep
T2 sequence (P35372 whole entry): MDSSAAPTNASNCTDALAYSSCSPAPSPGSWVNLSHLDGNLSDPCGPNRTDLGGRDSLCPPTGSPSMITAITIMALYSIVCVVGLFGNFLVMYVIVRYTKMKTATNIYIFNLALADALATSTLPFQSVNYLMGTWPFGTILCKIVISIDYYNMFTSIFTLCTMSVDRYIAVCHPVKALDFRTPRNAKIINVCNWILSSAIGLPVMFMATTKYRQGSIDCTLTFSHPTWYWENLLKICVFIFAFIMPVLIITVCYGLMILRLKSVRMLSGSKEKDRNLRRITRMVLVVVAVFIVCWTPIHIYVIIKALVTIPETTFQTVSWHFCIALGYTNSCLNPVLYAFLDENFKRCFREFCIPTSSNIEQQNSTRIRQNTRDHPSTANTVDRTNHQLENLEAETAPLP
Nature of the test: mu opioid receptor cellular assay (MOP), agonist mode, cAMP readout (Cerep). Type of test: cell-based. The protocol: Compounds were weighed precisely in an amount of approximately 2 mg and assayed in standard cellular assays by the contract research organization Cerep, Inc. (Pullman, Wash.) as executed at their subsidiary, Cerep SA (Le Bois l'Eveque, France). The readout is the amount of cAMP generated in the cells treated with the test compounds, in either agonist or antagonist mode. The assays used were the mu opioid receptor cellular assay (MOP in agonist and antagonist mode), the delta2 opioid receptor cellular assay (DOP in agonist and antagonist mode) and the kappa opioid receptor cellular assay (KOP in agonist and antagonist mode). The assays used are described in Wang, J. B., et al. (1994) FEBS Lett 338: 217-222, Law, P. Y. and Loh, H. H. (1993) Mol Pharmacol 43: 684-693, and Avidor-Reiss, T., et al. (1995) FEBS Lett 361: 70-74. The stimulant for the cells in the DOR antagonist assay was 3×10E-8M DPDPE, a well-accepted DOR literature standard.

Another test relates to db/db mice. Put plainly: db/db mice, blood glucose after s.c. dosing. Type of test: in vivo, mouse. The settings on record: db/db mice, s.c., 250 nmole/kg. As for the experimental part:
The 60 female db/db B6BKS (D) Leprdb/J (strain 000697) mice for this study were approximately 8 to 9 weeks old at arrival (Jackson Laboratory, Bar Harbor, Me.). […] One group of 8 female mice served as the vehicle control and received the vehicle, 0.2% BSA in saline, pH 7.4. One additional group of 8 female mice received the positive control article, liraglutide, at a dose level of 50 nmoles/kg. The test articles, vehicle, and positive control article were administered on Day 1, at approximately 0, 7, and 24 hours during the study via subcutaneous injection at a dose volume of 6 mL/kg.
Clinical observations were conducted at receipt, prior to randomization, and daily from Days 1 to 5. Body weights were measured and recorded at receipt, prior to randomization, and daily from Days 1 to 5. Food consumption was measured and recorded daily from Days 1 to 5. Blood samples for glucose analysis were collected pretest (Day −3) and at 0, 1, 2, 4, 8, 10, 24, 48, 72, and 96 hours following the first dose on Day 1. At study termination all animals were euthanized and the carcasses were discarded without further evaluation.

In general, EC50 refers to the concentration that produces a half-maximal response. A high value points to weaker potency. For the molecule `CCCCCCCCCCCCCCCCO[C@@H]1O[C@H](C(=O)NCCCC[C@H](NC(=O)C(C)(C)NC(=O)[C@H](CCC(N)=O)NC(=O)[C@@H](NC(=O)[C@H](Cc2c[nH]c3ccccc23)NC(=O)[C@H](CCCNC(=N)N)NC(=O)[C@H](C)NC(=O)[C@H](CCCCNC(=N)N)NC(=O)[C@H](CCC(N)=O)NC(=O)[C@H](Cc2c[nH]cn2)NC(=O)[C@H](CCCC)NC(=O)[C@H](CC(C)C)NC(=O)[C@H](CCC(N)=O)NC(=O)[C@@H](NC(=O)[C@H](CCC(=O)O)NC(=O)C(C)(C)NC(=O)[C@@H](NC(=O)C2(N)CCCC2)C(C)C)[C@@H](C)CC)[C@@H](C)CC)C(=O)NC(C)(C)C(N)=O)[C@@H](O)[C@H](O)[C@H]1O` [EU-287, Ac5c1-VaL2-Aib3-Glu4-Ile5-Gln6-Leu7-Nle8-His9-Gln10-hArg11-Ala12-Arg13-TrP14-Ile15-Gln16-Aib17-Lys(N-epsilon-1′-hexadecylbeta-D-glucuronyL)18-Aib19-NH2] (H-[Ac5c]V[Aib]EIQL[Nle]HQ[hArg]ARWIQ[Aib]K(βGlcA(1-O-hexadecyl))[Aib]-NH2), at PTH receptor (PTHR1), the Characterization result is “agonist”, the half-maximal effective concentration (EC50) is under 1 nM and the Emax is 128%.
Turning to `CCCCCCCCCCCCO[C@@H]1O[C@H](C(=O)NCCCC[C@H](NC(=O)[C@H](CC(C)C)NC(=O)[C@H](Cc2ccccc2)NC(=O)[C@@H]2CCC(=O)NCCCC[C@H](NC(=O)[C@H](CC(=O)O)NC(=O)[C@H](CCC(N)=O)NC(=O)[C@@H](NC(=O)[C@H](Cc3c[nH]c4ccccc34)NC(=O)[C@H](CCCNC(=N)N)NC(=O)[C@H](C)NC(=O)[C@H](CCCCNC(=N)N)NC(=O)[C@H](CCC(N)=O)NC(=O)[C@H](Cc3c[nH]cn3)NC(=O)[C@H](CCCC)NC(=O)[C@H](CC(C)C)NC(=O)[C@H](CCC(N)=O)NC(=O)[C@@H](NC(=O)[C@H](CCC(=O)O)NC(=O)C(C)(C)NC(=O)[C@@H](NC(=O)C3(N)CCCC3)C(C)C)[C@@H](C)CC)[C@@H](C)CC)C(=O)N[C@@H](CCCNC(=N)N)C(=O)N[C@@H](CCCNC(=N)N)C(=O)N[C@@H](CCCNC(=N)N)C(=O)N2)C(=O)NC(C)(C)C(N)=O)[C@@H](O)[C@H](O)[C@H]1O` [EU-284] (H-[Ac5c]V[Aib]EIQL[Nle]HQ[hArg]ARWIQDKRRREFLK(GlcA(β-D,1-O-dodecyl))[Aib]-NH2; lactam 18-22; N-terminus assumed), at PTH receptor (PTHR1), the Characterization entry is reported as “agonist” and the Emax turned out to be 110%.
For the molecule `CO[C@@H]1O[C@H](C(=O)NCCCC[C@H](NC(=O)[C@H](Cc2c(C)cc(C)cc2C)NC(=O)[C@@H]2CCCN2C(=O)[C@@H](N)Cc2c(C)cc(O)cc2C)C(N)=O)[C@@H](O)[C@H](O)[C@H]1O` [EU-A101, Dmt-Pro-Tmp-Lys(C1-glucuronyl)-NH2] (H-[Dmt]P[Phe(2,4,6-Me3)]K(βGlcA(1-OMe))-NH2), at mu opioid receptor, the “Characterization (MOP)” value is “pure agonist” and the EC50 is 13 nM.
`CCCCCCCCO[C@@H]1O[C@H](C(=O)NCCCC[C@H](NC(=O)[C@@H](NC(=O)[C@H](Cc2ccccc2)NC(=O)[C@H](CCC(=O)O)NC(=O)[C@@H]2CCCCNC(=O)CC[C@H](NC(=O)[C@H](CC(=O)O)NC(=O)[C@H](CC(C)C)NC(=O)[C@H](Cc3ccc(O)cc3)NC(=O)[C@H](CCCCN)NC(=O)[C@H](CO)NC(=O)[C@H](Cc3ccc(O)cc3)NC(=O)[C@H](CC(=O)O)NC(=O)[C@H](CO)NC(=O)[C@@H](NC(=O)[C@H](Cc3ccccc3)NC(=O)[C@@H](NC(=O)CNC(=O)[C@H](CCC(N)=O)NC(=O)C(C)(C)NC(=O)[C@@H](N)Cc3c[nH]cn3)[C@@H](C)O)[C@@H](C)O)C(=O)N[C@@H](CCC(N)=O)C(=O)N[C@@H](C)C(=O)N[C@@H](C)C(=O)N2)[C@@H](C)CC)C(=O)N[C@@H](Cc2c[nH]c3ccccc23)C(=O)N[C@@H](CC(C)C)C(=O)N[C@@H](CC(C)C)C(=O)N[C@@H](CCC(N)=O)C(=O)N[C@H](C(N)=O)[C@@H](C)O)[C@@H](O)[C@H](O)[C@H]1O` [EU-A992]: the “Mean Blood Glucose” value in the test with db/db mice (0 hr) is 405 mg/dL; with db/db mice (10 hr), 104 mg/dL; in the test with db/db mice (24 hr), 112 mg/dL; with db/db mice (48 hr) it was 130 mg/dL.
In the case of `CCCCCCCCCCCO[C@@H]1O[C@H](C(=O)NCCCC[C@H](NC(=O)[C@@H](NC(=O)[C@H](Cc2ccccc2)NC(=O)[C@H](CCC(=O)O)NC(=O)[C@@H]2CCCCNC(=O)CC[C@H](NC(=O)[C@H](CC(=O)O)NC(=O)[C@H](CC(C)C)NC(=O)[C@H](Cc3ccc(O)cc3)NC(=O)[C@H](CCCCN)NC(=O)[C@H](CO)NC(=O)[C@H](Cc3ccc(O)cc3)NC(=O)[C@H](CC(=O)O)NC(=O)[C@H](CO)NC(=O)[C@@H](NC(=O)[C@H](Cc3ccccc3)NC(=O)[C@@H](NC(=O)CNC(=O)[C@H](CCC(N)=O)NC(=O)C(C)(C)NC(=O)[C@@H](N)Cc3c[nH]cn3)[C@@H](C)O)[C@@H](C)O)C(=O)N[C@@H](CCC(N)=O)C(=O)N[C@@H](C)C(=O)N[C@@H](C)C(=O)N2)[C@@H](C)CC)C(=O)N[C@@H](Cc2c[nH]c3ccccc23)C(=O)N[C@@H](CC(C)C)C(=O)N[C@@H](CC(C)C)C(=O)N[C@@H](CCC(N)=O)C(=O)N[C@H](C(N)=O)[C@@H](C)O)[C@@H](O)[C@H](O)[C@H]1O` [EU-A1168], the “Mean Blood Glucose” value in the test on db/db mice (0 hr) was determined as 380 mg/dL; in the test with db/db mice (10 hr), 133 mg/dL; in the test with db/db mice (24 hr) it was 169 mg/dL; in the test on db/db mice (48 hr), 164 mg/dL.
Consider `CO[C@@H]1O[C@H](C(=O)NCCCC[C@@H](NC(=O)[C@@H](N)Cc2c(C)cc(O)cc2C)C(=O)N[C@@H](Cc2c(C)cc(C)cc2C)C(=O)N[C@@H](Cc2ccccc2)C(N)=O)[C@@H](O)[C@H](O)[C@H]1O` [EU-A107, Dmt-D-Lys(C1-glucuronyl)-Tmp-Phe-NH2] (H-[Dmt][dK](βGlcA(1-OMe))[Phe(2,4,6-Me3)]F-NH2; N-terminus assumed), for which, at mu opioid receptor, the “Characterization (MOP)” value is given as “Agonist” and a half-maximal effect (EC50) was put at 60 nM.
Turning to `CCCCCCCCCCO[C@@H]1O[C@H](C(=O)NCCCC[C@H](NC(=O)[C@@H](NC(=O)[C@H](Cc2ccccc2)NC(=O)[C@H](CCC(=O)O)NC(=O)[C@@H]2CCCCNC(=O)CC[C@H](NC(=O)[C@H](CC(=O)O)NC(=O)[C@H](CC(C)C)NC(=O)[C@H](Cc3ccc(O)cc3)NC(=O)[C@H](CCCCN)NC(=O)[C@H](CO)NC(=O)[C@H](Cc3ccc(O)cc3)NC(=O)[C@H](CC(=O)O)NC(=O)[C@H](CO)NC(=O)[C@@H](NC(=O)[C@H](Cc3ccccc3)NC(=O)[C@@H](NC(=O)CNC(=O)[C@H](CCC(N)=O)NC(=O)C(C)(C)NC(=O)[C@@H](N)Cc3c[nH]cn3)[C@@H](C)O)[C@@H](C)O)C(=O)N[C@@H](CCC(N)=O)C(=O)N[C@@H](C)C(=O)N[C@@H](C)C(=O)N2)[C@@H](C)CC)C(=O)N[C@@H](Cc2c[nH]c3ccccc23)C(=O)N[C@@H](CC(C)C)C(=O)N[C@@H](CC(C)C)C(=O)N[C@@H](CCC(N)=O)C(=O)N[C@H](C(N)=O)[C@@H](C)O)[C@@H](O)[C@H](O)[C@H]1O` [EU-A1167], the “Mean Blood Glucose” value with db/db mice (0 hr) is reported as 379 mg/dL; with db/db mice (10 hr), 171 mg/dL; in the test on db/db mice (24 hr), 117 mg/dL; in the test on db/db mice (48 hr), 113 mg/dL.
